Data reported in patent US20080125397A1, “2 (SULFONYL)ETHYL N,N,N',N' tetrakis(2 chloroethyl)phosphorodia” (Telik, Inc., priority 2006, published 2008).

What was measured:
MX-1 tumor [1] = assay: MX-1 xenograft assay, intraperitoneal administration; assay type: in vivo, athymic nu/nu mice
Procedure: (§1) Female athymic nu/nu mice (Harlan, Indianapolis, Ind., U.S.A. or similar vendor), 6-8 weeks old (approximately 20 g), were implanted in the mammary fat pad of the right fore flank with 20-30 mg pieces of MX-1 tumor harvested from similar nu/nu mice that had previously been implanted with the MX-1 tumor. […] Groups of mice were treated with 2-({2-oxo-2-[(pyridin-3-ylmethyl)amino]ethyl}sulfonyl)ethyl N,N,N′,N′-tetrakis(2-chloroethyl)phosphorodiamidate hydrochloride at 50 and 100 mg/Kg, dissolved in aqueous 5% dextrose, by intraperitoneal injection once/day for 5 consecutive days, with vehicle control. Tumor mass, estimated from volume, was measured twice weekly; and tumor growth inhibition was measured when the average tumor mass in the control group first exceeded 2000 mg.

[2] = test system: DLD-1 (colorectal adenocarcinoma); assay: Cytotoxicity/growth inhibition assay (CellTiter-Glo), DLD-1; assay type: cell-based, human
Procedure: (§2) The human cancer cell lines DLD-1 (colorectal adenocarcinoma), LNCaP (prostate carcinoma), and MIA PaCa-2 (pancreatic carcinoma) were obtained from the American Type Culture Collection, Manassas, Va., U.S.A., and MX-1 (breast carcinoma) from the National Cancer Institute, Bethesda, Md., U.S.A. The CellTiter-Glo assay kit was obtained from Promega Corporation, Madison, Wis., U.S.A. All products were used in accordance with manufacturer's directions. All assays were conducted in triplicate wells, with dimethyl sulfoxide (DMSO) solvent control. The extent of cell growth was expressed as a percentage of the signal from the solvent control wells.
(§3) Log-phase cells were trypsinized, collected by centrifugation, and resuspended in a small volume of fresh medium, and the density of viable cells was determined following Trypan Blue staining. Cells were diluted in fresh media (3×10^3 cells/mL for DLD-1, MIA PaCa-2, and MX-1, and 6×10^3 cells/mL for LNCaP), and added at 150 μL/well to 96-well plates, and incubated for several hours to allow attachment in the case of adherent cells. […] After incubation for 10 minutes at room temperature, and the plate was read with a luminometer.

MIA PaCa-2 tumor = assay: MiaPaCa-2 xenograft assay, intraperitoneal administration; assay type: in vivo, athymic nu/nu mice; settings: 100 mg/Kg intraperitoneal once/day for 7 consecutive days
Procedure: Male athymic nu/nu mice, 6-8 weeks old (approximately 20 g), were implanted subcutaneously in the right fore flank with 20-30 mg pieces of MIA PaCa-2 tumor harvested from similar nu/nu mice that had previously been implanted with the MIA PaCa-2 tumor. […] A group of mice was treated with 2-({2-oxo-2-[(pyridin-3-ylmethyl)-amino]ethyl}sulfonyl)ethyl N,N,N′,N′-tetrakis(2-chloroethyl)phosphorodiamidate hydrochloride, dissolved in aqueous 5% dextrose, at 100 mg/Kg by intraperitoneal injection once/day for 7 consecutive days, with vehicle control.

[3] = test system: MIA PaCa-2 (pancreatic carcinoma); assay: Cytotoxicity/growth inhibition assay (CellTiter-Glo), MIA PaCa-2; assay type: cell-based, human
Procedure: as §2, §3

[4] = test system: LNCaP (prostate carcinoma); assay: Cytotoxicity/growth inhibition assay (CellTiter-Glo), LNCaP; assay type: cell-based, human
Procedure: as §2, §3

Solubility in water = assay type: physicochemical
MX-1 tumor [5] = assay: MX-1 xenograft assay, intravenous administration; assay type: in vivo, athymic nu/nu mice
Procedure: as §1
(§4) A study similar to that described in In vivo Example 1 was performed using intravenous administration of 2-({2-oxo-2-[(pyridin-3-ylmethyl)amino]ethyl}sulfonyl)ethyl N,N,N′,N′-tetrakis(2-chloroethyl)phosphorodiamidate hydrochloride. A group of mice was treated with the compound, dissolved in aqueous 5% dextrose, at 40 and 80 mg/Kg by tail vein injection once/day for 5 consecutive days (with vehicle control).

MX-1 (breast carcinoma) = assay: Cytotoxicity/growth inhibition assay (CellTiter-Glo), MX-1; assay type: cell-based, human
Procedure: as §2, §3

MX-1 tumor [6] = assay: MX-1 xenograft assay, oral administration; assay type: in vivo, athymic nu/nu mice; settings: 150 mg/Kg by gavage once/day for 5 consecutive days
Procedure: as §1
as §4, with “oral” for “intravenous”, “water,” for “aqueous 5% dextrose,”, “150” for “40 and 80”, “gavage” for “tail vein injection”

[7] = Safety at the doses tested in the in vivo examples; set-up: species or system athymic nu/nu mice
Procedure: as §1
as §4, with “oral” for “intravenous”, “water,” for “aqueous 5% dextrose,”, “150” for “40 and 80”, “gavage” for “tail vein injection”
A study similar to that described in In vivo Example 1 was performed using intravenous administration of 2-({2-oxo-2-[(pyridin-3-ylmethyl)amino]ethyl}sulfonyl)ethyl N,N,N′,N′-tetrakis(2-chloroethyl)phosphorodiamidate hydrochloride. […]

Compound	inhibition of tumor growth compared to vehicle (MX-1 tumor [1]; 50 mg/Kg intraperitoneal once/day for 5 consecutive days) [%]	inhibition of tumor growth compared to vehicle (MX-1 tumor [1]; 100 mg/Kg intraperitoneal once/day for 5 consecutive days) [%]	IC50 ([2]; Homo sapiens, 96 h, DLD-1, 4 days culture) [µM]	inhibition of tumor growth compared to vehicle (MIA PaCa-2 tumor) [%]	IC50 ([3]; Homo sapiens, 72 h, MIA PaCa-2, 3 days culture) [µM]	IC50 ([4]; Homo sapiens, 96 h, 4 days culture) [µM]	solubility (Solubility in water) [µg/mL]	inhibition of tumor growth compared to vehicle (MX-1 tumor [5]; 40 mg/Kg tail vein injection once/day for 5 consecutive days) [%]	inhibition of tumor growth compared to vehicle (MX-1 tumor [5]; 80 mg/Kg tail vein injection once/day for 5 consecutive days) [%]	IC50 (MX-1 (breast carcinoma); Homo sapiens, 72 h, MX-1, 3 days culture) [µM]	inhibition of tumor growth compared to vehicle (MX-1 tumor [6]) [%]	potency compared with canfosfamide ([2]; DLD-1)	potency compared with canfosfamide ([3]; MIA PaCa-2)	potency compared with canfosfamide [4]	safety/toxicity [7]	potency compared with canfosfamide (MX-1 (breast carcinoma); MX-1)
Cl.O=C(CS(=O)(=O)CCOP(=O)(N(CCCl)CCCl)N(CCCl)CCCl)NCc1cccnc1 [2-({2-Oxo-2-[(pyridin-3-ylmethyl)amino]ethyl}sulfonyl)ethyl N,N,N′,N′-tetrakis(2-chloroethyl)phosphorodiamidate hydrochloride]	28	95	12	92	16	67	≥ 10000	39	98	22	67					
O=C(CS(=O)(=O)CCOP(=O)(N(CCCl)CCCl)N(CCCl)CCCl)NCc1cccnc1 [2-({2-oxo-2-[(pyridin-3-ylmethyl)amino]ethyl}sulfonyl)ethyl N,N,N′,N′-tetrakis(2-chloroethyl)phosphorodiamidate]												at least as potent as canfosfamide	at least as potent as canfosfamide	at least as potent as canfosfamide	safe and non-toxic	at least as potent as canfosfamide
O=C(CS(=O)(=O)CCOP(=O)(N(CCCl)CCCl)N(CCCl)CCCl)NCc1cccnc1.O=C(O)C(O)C(O)C(=O)O [tartrate salt, 2-({2-Oxo-2-[(pyridin-3-ylmethyl)amino]ethyl}sulfonyl)ethyl N,N,N′,N′-tetrakis(2-chloroethyl)phosphorodiamidate tartrate]							≥ 5000									
